Patent US20250304620A1, “ANTIMICROBIAL PEPTIDE AND APPLICATION THEREOF” (priority 2023, published 2025)
Marks after values point to notes of the source that are not given here. Non-standard residues stand in square brackets, D forms with d. PEG2000 = polyethylene glycol 2000, conjugated to the N-terminus; PEG4000 = polyethylene glycol 4000, conjugated to the C-terminus; PEG200 = polyethylene glycol 200, conjugated to the C-terminus; PEG500 = polyethylene glycol 500, conjugated to the C-terminus; 2Nal = N[C@@H](Cc1ccc2ccccc2c1)C(=O)O; PEG1000 = polyethylene glycol 1000

Tests used:
[1] = system: Staphylococcus aureus (NRS 384); test: microbe, parasite or virus in culture; format: cell-based; details: Staphylococcus aureus (NRS 384)
Method in brief: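 CLSI broth microdilution with serial twofold dilutions gave MICs against S. aureus NRS 384, with 5 parallel replicates. Levofloxacin and the AMP Cbf-K16 served as positive controls.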

[2] = system: Bacillus subtilis ATCC 6633; format: cell-based
Description: (§1) According to the Standards of Clinical and Laboratory Standards Institute (CLSI) of the USA for antimicrobial drug susceptibility test operation standards, the micronutrient serial twofold dilution method was used further determine MICs of 30 AMPs (S/N: LV-1 to LV-30) 10 clinically common sensitive strains and 6 fungi in clinical practice. The experiment was repeated 5 times in parallel.

[3] = system: Candida albicans ATCC MYA-2876; format: cell-based
Description: as §1

[4] = system: Candida glabrata ATCC 15126; format: cell-based
Description: as §1

Candida krusei ATCC 6258 = format: cell-based
Description: as §1

[5] = system: Candida tropicalis ATCC 750; format: cell-based
Description: as §1

Candida utilis ATCC 9950 = format: cell-based
Description: as §1

[6] = system: Corynebacterium ATCC 7715; format: cell-based
Description: as §1

Enterococcus ATCC 29212 = format: cell-based
Description: as §1

[7] = system: Escherichia coli ATCC 25922; format: cell-based
Description: as §1

[8] = system: Klebsiella pneumoniae ATCC 700603; format: cell-based
Description: as §1

[9] = system: Pseudomonas aeruginosa ATCC 27853; format: cell-based
Description: as §1

[10] = system: Salmonella typhimurium ATCC 14028; format: cell-based
Description: as §1

[11] = system: Serratia marcescens ATCC 29021; format: cell-based
Description: as §1

[12] = system: Staphylococcus aureus ATCC 25923; format: cell-based
Description: as §1

[13] = system: Trichophyton ATCC MYA-4438; format: cell-based
Description: as §1

[14] = system: Shigella flexneri ATCC 12022; test: MIC against clinically common bacterial strain; format: cell-based
Description: as §1

[15] = system: Staphylococcus aureus (NRS 384); details: MIC vs Staphylococcus aureus (NRS 384) after trypsin treatment 1:10 (w/w), 37° C., 3 h
Protocol: Trypsin (250 U/mg, pH=8.0) and AMPs (LV-1 to LV-30) were mixed in a ratio of 1:10 (w/w) and added to a reaction buffer (0.2 M sodium phosphate, 1 mM CaCl2), pH 7.5), and then incubated at 37° C. for 3 h.

[16] = system: Escherichia coli ATCC 25922; test: Oral formulations on mice with systemic bacterial infection; format: in vivo, ICR mice; details: three times a day for 7 days; for Number of mice that died on each day after infection: day 4 / Number of mice that died on each day after infection: day 5 / Number of mice that died on each day after infection: day 6 / Number of mice that died on each day after infection: day 7 / Number of mice that died on each day after infection: day 8 / Average survival times (Days): n = 10; for Average survival times (Days): observed for 14 d
Protocol: Both female and male ICR mice were used in the test, half of the female and male mice were taken and randomly assigned into groups, with 10 mice in each group, and kept in separate cages. The mice were divided into a blank control group, a negative control group, a positive control Levofloxacin group, and AMPs LV-1 to LV-30 groups. An Escherichia coli ATCC 25922 bacterial suspension was prepared, a concentration of the suspension was adjusted 1×10^7 CFU/mL for subsequent use. Except for the blank control group, all other mice were injected with the Escherichia coli suspension (0.2 mL, 1×10^7 CFU/mL), into abdominal cavity of the mice, to establish a model. After the model was successfully established, the mice were given drug immediately according to their body weights. Except for the blank control group and the negative control group, the mice in all other groups were gavaged with different compounds, three times a day for 7 consecutive days. The mice were then observed for 14 d. The death of mice in each group was observed, and survival time of the mice was recorded. Results of the effect of the oral formulations of AMPs LV-1 to LV-30 on the survival time of mice infected with Escherichia coli are shown in Table 11.

Substance	MIC against Staphylococcus aureus (NRS 384) [1]	MIC Bacillus subtilis ATCC 6633 [2]	MIC Candida albicans ATCC MYA-2876 [3]	MIC Candida glabrata ATCC 15126 [4]	MIC Candida krusei ATCC 6258 (Candida krusei ATCC 6258)	MIC Candida tropicalis ATCC 750 [5]	MIC Candida utilis ATCC 9950 (Candida utilis ATCC 9950)	MIC Corynebacterium ATCC 7715 [6]	MIC Enterococcus ATCC 29212 (Enterococcus ATCC 29212)	MIC Escherichia coli ATCC 25922 [7]	MIC Klebsiella pneumoniae ATCC 700603 [8]	MIC Pseudomonas aeruginosa ATCC 27853 [9]	MIC Salmonella typhimurium ATCC 14028 [10]	MIC Serratia marcescens ATCC 29021 [11]	MIC Staphylococcus aureus ATCC 25923 [12]	MIC Trichophyton ATCC MYA-4438 [13]	MIC Shigella flexneri ATCC 12022 [14]	Trypsin MIC [15]	Number of mice that died on each day after infection: day 4 ([16]; 1 mg/kg gavage)	Number of mice that died on each day after infection: day 5 ([16]; 1 mg/kg gavage)	other results
Ac-RKLLXRLKXRK-PEG4000 [LV-30] (Ac-RKLL[2Nal]RLK[2Nal]RK-PEG4000) [polyethylene glycol 4000 conjugated to C-terminal; X=3-(2-naphthyl)-alanine]	1 µg/mL	2 µg/mL	8 µg/mL	16 µg/mL	16 µg/mL	8 µg/mL	8 µg/mL	8 µg/mL	4 µg/mL	2 µg/mL	8 µg/mL	2 µg/mL	2 µg/mL	8 µg/mL	2 µg/mL	8 µg/mL	2 µg/mL	1 µg/mL	1 Mouse	1 Mouse	Number of mice that died on each day after infection: day 6 ([16]; 1 mg/kg gavage): 3 Mouse; Number of mice that died on each day after infection: day 7 ([16]; 1 mg/kg gavage): 0 Mouse; Number of mice that died on each day after infection: day 8 ([16]; 1 mg/kg gavage): 1 Mouse; Average survival times (Days) ([16]; 1 mg/kg gavage): 9.1** Days
Ac-RKLLXRLKXRK-PEG500 [LV-27] (Ac-RKLL[2Nal]RLK[2Nal]RK-PEG500) [polyethylene glycol 500 conjugated to C-terminal; X=3-(2-naphthyl)-alanine]	1 µg/mL	2 µg/mL	8 µg/mL	8 µg/mL	8 µg/mL	4 µg/mL	16 µg/mL	8 µg/mL	2 µg/mL	1 µg/mL	8 µg/mL	1 µg/mL	2 µg/mL	4 µg/mL	1 µg/mL	8 µg/mL	2 µg/mL	1 µg/mL	0 Mouse	1 Mouse	Number of mice that died on each day after infection: day 4 ([16]; 0.2 mg/kg gavage): 1 Mouse; Number of mice that died on each day after infection: day 5 ([16]; 0.2 mg/kg gavage): 1 Mouse; Number of mice that died on each day after infection: day 6 ([16]; 0.2 mg/kg gavage): 2 Mouse; Number of mice that died on each day after infection: day 7 ([16]; 0.2 mg/kg gavage): 1 Mouse; Number of mice that died on each day after infection: day 8 ([16]; 0.2 mg/kg gavage): 0 Mouse; Average survival times (Days) ([16]; 0.2 mg/kg gavage): 9.8** Days; Number of mice that died on each day after infection: day 6 ([16]; 1 mg/kg gavage): 1 Mouse; Number of mice that died on each day after infection: day 7 ([16]; 1 mg/kg gavage): 0 Mouse; Number of mice that died on each day after infection: day 8 ([16]; 1 mg/kg gavage): 1 Mouse; Average survival times (Days) ([16]; 1 mg/kg gavage): 11.7**** Days; Number of mice that died on each day after infection: day 4 ([16]; 5 mg/kg gavage): 0 Mouse; Number of mice that died on each day after infection: day 5 ([16]; 5 mg/kg gavage): 2 Mouse; Number of mice that died on each day after infection: day 6 ([16]; 5 mg/kg gavage): 1 Mouse; Number of mice that died on each day after infection: day 7 ([16]; 5 mg/kg gavage): 0 Mouse; Number of mice that died on each day after infection: day 8 ([16]; 5 mg/kg gavage): 0 Mouse; Average survival times (Days) ([16]; 5 mg/kg gavage): 11.4**** Days; survival time of mice infected with Escherichia coli ([16]; gavage, observed 14 d): superior to those of the Levofloxacin group
Ac-RKLLXRLKXRK-PEG200 [LV-26] (Ac-RKLL[2Nal]RLK[2Nal]RK-PEG200) [polyethylene glycol 200 conjugated to C-terminal; X=3-(2-naphthyl)-alanine]	1 µg/mL	4 µg/mL	8 µg/mL	8 µg/mL	4 µg/mL	8 µg/mL	16 µg/mL	2 µg/mL	8 µg/mL	2 µg/mL	4 µg/mL	4 µg/mL	2 µg/mL	8 µg/mL	1 µg/mL	16 µg/mL	4 µg/mL	1 µg/mL	2 Mouse	1 Mouse	Number of mice that died on each day after infection: day 6 ([16]; 1 mg/kg gavage): 0 Mouse; Number of mice that died on each day after infection: day 7 ([16]; 1 mg/kg gavage): 1 Mouse; Number of mice that died on each day after infection: day 8 ([16]; 1 mg/kg gavage): 1 Mouse; Average survival times (Days) ([16]; 1 mg/kg gavage): 9.8** Days
Ac-RKLLXRLKXRK-PEG1000 [LV-28] (Ac-RKLL[2Nal]RLK[2Nal]RK-PEG1000) [polyethylene glycol 1000 conjugated to C-terminal; X=3-(2-naphthyl)-alanine]	1 µg/mL	4 µg/mL	8 µg/mL	8 µg/mL	4 µg/mL	4 µg/mL	8 µg/mL	8 µg/mL	8 µg/mL	2 µg/mL	4 µg/mL	2 µg/mL	4 µg/mL	8 µg/mL	2 µg/mL	8 µg/mL	4 µg/mL	1 µg/mL	1 Mouse	2 Mouse	Number of mice that died on each day after infection: day 6 ([16]; 1 mg/kg gavage): 1 Mouse; Number of mice that died on each day after infection: day 7 ([16]; 1 mg/kg gavage): 1 Mouse; Number of mice that died on each day after infection: day 8 ([16]; 1 mg/kg gavage): 0 Mouse; Average survival times (Days) ([16]; 1 mg/kg gavage): 9.7** Days
PEG2000-RKLLXRLKXRK-NH2 [LV-29] (PEG2000-RKLL[2Nal]RLK[2Nal]RK-NH2) [polyethylene glycol 2000 conjugated to N-terminal; X=3-(2-naphthyl)-alanine]	1 µg/mL	4 µg/mL	8 µg/mL	8 µg/mL	8 µg/mL	4 µg/mL	4 µg/mL	16 µg/mL	8 µg/mL	1 µg/mL	4 µg/mL	4 µg/mL	4 µg/mL	4 µg/mL	2 µg/mL	16 µg/mL	4 µg/mL	1 µg/mL	0 Mouse	1 Mouse	Number of mice that died on each day after infection: day 6 ([16]; 1 mg/kg gavage): 2 Mouse; Number of mice that died on each day after infection: day 7 ([16]; 1 mg/kg gavage): 1 Mouse; Number of mice that died on each day after infection: day 8 ([16]; 1 mg/kg gavage): 1 Mouse; Average survival times (Days) ([16]; 1 mg/kg gavage): 10.2*** Days
